Key:
Assay type in all cases: in vivo
[1] = system: livid amaranth (Amaranthus); test: Selective herbicide effect test to field crop (soil spray treatment before germination), Test example 3, herbicide effect; details: 2 weeks after treatment, 100% = complete death
Method: (§1) • Preparing preparation of active compound • Carrier: DMF 5 parts by weight • Emulsifier: benzyloxy polyglycol ether 1 part by weight
(§2) A preparation of active compound is obtained as an emulsion by mixing 1 part by weight of active compound with the above amounts of carrier and emulsifier. A prescribed amount of preparation is diluted with water.
(§3) In a greenhouse, seeds of field crops [wheat (Triticum), corn (Zea), soy bean (Glycine)] and weeds [barnyardgrass (Echinochloa), southern crabgrass (Digitaria), livid amaranth (Amaranthus), fat hen (Chenopodium)] were sown on the surface layer of 16 cm^2 pots filled with field soil (sandy loam), and covered with soil. After 1 day, the prescribed diluted solutions of preparations of respective active compounds, which were prepared according to Test example 1, were sprayed to the soil. After 2 weeks from the treatment, phytotoxicity to crops and herbicide effect of respective compounds were examined. In the evaluation of herbicide effect and phytotoxicity, complete death was evaluated as 100%, and the case of no herbicide effect or no phytotoxicity was evaluated as 0%. When the herbicide effect is 80% or more, such active compounds are evaluated to have practical utility as a herbicide. When phytotoxicity is 20% or less, such active compounds are evaluated to have excellent safety as a herbicide.

[2] = system: barnyardgrass (Echinochloa); test: as above; details: 2 weeks after treatment, 100% = complete death
Method: as §1, §2, §3

[3] = system: fat hen (Chenopodium); test: as above; details: 2 weeks after treatment, 100% = complete death
Method: as §1, §2, §3

[4] = system: southern crabgrass (Digitaria); test: as above; details: 2 weeks after treatment, 100% = complete death
Method: as §1, §2, §3

[5] = system: Green bristle grass; test: Herbicide effect test against field weed (foliage spray treatment after germination), Test example 2; details: foliage spray treatment after germination (2nd-3rd leaf stage); dosage 500 g ai/ha; 2 weeks after treatment; 100% = complete death
Method: as §1, §2
(§4) In a greenhouse, seeds of field weeds [livid amaranth (Amaranthus), green bristle grass (Setaria)] were sown on the surface layer of 16 cm^2 pots filled with field soil (sandy loam) , and covered with soil. Here, one kind of grass was sown for one pot. Immediately after sowing, the prescribed diluted solutions which were prepared according to the above preparation method of the preparation of respective active compounds were sprayed to soil. After 2 weeks from the treatment, the herbicide effect of each of the compounds was examined. In the evaluation of herbicide effect, complete death was evaluated as 100%, and the case of no herbicide effect was evaluated as 0%. When the herbicide effect is 80% or more, such active compounds are evaluated to have practical utility as a herbicide.
In a greenhouse, to 16 cm^2 pots filled with field soil (sandy loam), seedling plants (2nd-3rd leaf stage) of a field weed (Green bristle grass) were transplanted. After 1 day, the prescribed diluted solutions of preparations of respective active compounds, which were prepared according to the above Test example 1, were sprayed from the upside of the plant body. After 2 weeks from the treatment, the herbicide effect of each of the compounds was examined. Evaluation of herbicidal effect was carried out similarly to Test example 1.

[6] = system: wheat (Triticum); test: Selective herbicide effect test to field crop (soil spray treatment before germination), Test example 3, phytotoxicity; details: 2 weeks after treatment, 100% = complete death, 0% = no phytotoxicity
Method: as §1, §2, §3

[7] = system: corn (Zea); test: as above; details: 2 weeks after treatment, 100% = complete death, 0% = no phytotoxicity
Method: as §1, §2, §3

[8] = system: soy bean (Glycine); test: as above; details: 2 weeks after treatment, 100% = complete death, 0% = no phytotoxicity
Method: as §1, §2, §3

[9] = system: soy bean; test: Selective herbicide effect test to field crop (foliage spray treatment after germination), Test example 4, phytotoxicity; details: 14 days after spraying, 100% = complete death, 0% = no phytotoxicity
Method: as §1, §2, §3
(§5) In a greenhouse, respective seeds of weeds (barnyardgrass, southern crabgrass, fat hen, and livid amaranth) and crops (wheat, corn, and soy bean) were sown on the surface layer of pots filled with field soil, and covered with soil. After one day and 10 days (average 2nd leaf stage for weeds) from the sowing and covering the seeds with soil, the prescribed diluted solutions of preparations of respective active compounds, which were prepared according to Test example 1, were uniformly sprayed onto the soil surfaces of respective test pots and the foliage parts of the plant bodies.
(§6) After 14 days from the spraying, the degree of herbicide effect was examined. Evaluation of herbicide effect and phytotoxicity were carried out similarly to Test example 3.

[10] = system: wheat; test: as above; details: 14 days after spraying, 100% = complete death, 0% = no phytotoxicity
Method: as §1, §2, §3, §5, §6

[11] = system: corn; test: as above; details: 14 days after spraying, 100% = complete death, 0% = no phytotoxicity
Method: as §1, §2, §3, §5, §6

[12] = system: livid amaranth; test: Selective herbicide effect test to field crop (foliage spray treatment after germination), Test example 4, herbicide effect; details: 14 days after spraying, 100% = complete death, 0% = no effect
Method: as §1, §2, §3, §5, §6

[13] = system: southern crabgrass; test: as above; details: 14 days after spraying, 100% = complete death, 0% = no effect
Method: as §1, §2, §3, §5, §6

[14] = system: barnyardgrass; test: as above; details: 14 days after spraying, 100% = complete death, 0% = no effect
Method: as §1, §2, §3, §5, §6

[15] = system: fat hen; test: as above; details: 14 days after spraying, 100% = complete death, 0% = no effect
Method: as §1, §2, §3, §5, §6

[16] = system: green bristle grass (Setaria); test: Herbicide effect test against field weed (soil spray treatment before germination), Test example 1; details: dosage 500 g ai/ha, 2 weeks after treatment, 100% = complete death, 0% = no effect
Method: as §1, §2, §4

[17] = system: livid amaranth (Amaranthus); test: as above; details: dosage 500 g ai/ha, 2 weeks after treatment, 100% = complete death, 0% = no effect
Method: as §1, §2, §4

| SMILES | Herbicide effect, Livid amaranth ([1]; dosage 320 g/ha) | herbicide effect, Barnyardgrass ([2]; dosage 320 g/ha) | herbicide effect, Fat hen ([3]; dosage 320 g/ha) | herbicide effect, Southern crabgrass ([4]; dosage 320 g/ha) | Herbicide effect, Green bristle grass [5] | phytotoxicity, Wheat ([6]; dosage 320 g/ha) | phytotoxicity, Corn ([7]; dosage 320 g/ha) | phytotoxicity, Soy bean ([8]; dosage 320 g/ha) | phytotoxicity, Soy bean ([9]; 320 g/ha) | phytotoxicity, Wheat ([10]; 320 g/ha) | phytotoxicity, Corn ([11]; 320 g/ha) | Herbicide effect, Livid amaranth ([12]; 320 g/ha) | herbicide effect, Southern crabgrass ([13]; 320 g/ha) | herbicide effect, Barnyardgrass ([14]; 320 g/ha) | herbicide effect, Fat hen ([15]; 320 g/ha) | Herbicide effect, Green bristle grass [16] | Herbicide effect, Livid amaranth [17] | other results |
| --- | --- | --- | --- | --- | --- | --- | --- | --- | --- | --- | --- | --- | --- | --- | --- | --- | --- | --- |
| Cc1nc(-n2cncn2)ccc1C(=O)C1=C(O)CCC(C)C1=O (stereo not shown) [1-115] | 90% | 100% | 100% | 100% | 100% | 0% | 0% | 10% | – | – | – | – | – | – | – | – | – | – |
| Cc1nc(-n2cncn2)ccc1C(=O)C1=C(O)CCC(C)(C)C1=O [1-457] | – | – | – | – | 100% | – | – | – | 40% | 20% | 50% | 100% | 100% | 100% | 100% | – | – | – |
| Cc1nc(-n2cncn2)ccc1C(=O)C1=C(O)C(C)(C)C(=O)C(C)(C)C1=O [1-685] | – | – | – | – | – | – | – | – | – | – | – | – | – | – | – | – | – | Herbicide effect, Livid amaranth ([1]; dosage 80 g/ha): 90%; herbicide effect, Barnyardgrass ([2]; dosage 80 g/ha): 100%; herbicide effect, Fat hen ([3]; dosage 80 g/ha): 90%; herbicide effect, Southern crabgrass ([4]; dosage 80 g/ha): 100%; phytotoxicity, Wheat ([6]; dosage 80 g/ha): 40%; phytotoxicity, Corn ([7]; dosage 80 g/ha): 30%; phytotoxicity, Soy bean ([8]; dosage 80 g/ha): 10% |
| Cc1nc(-n2cncn2)ccc1C(=O)c1cnn(C)c1O [2-1] | – | – | – | – | – | – | – | – | – | – | – | – | – | – | – | 100% | 100% | phytotoxicity, Soy bean ([9]; 80 g/ha): 50%; phytotoxicity, Wheat ([10]; 80 g/ha): 0%; phytotoxicity, Corn ([11]; 80 g/ha): 5%; Herbicide effect, Livid amaranth ([12]; 80 g/ha): 100%; herbicide effect, Southern crabgrass ([13]; 80 g/ha): 95%; herbicide effect, Barnyardgrass ([14]; 80 g/ha): 100%; herbicide effect, Fat hen ([15]; 80 g/ha): 90% |
| Cc1nc(-n2cncn2)ccc1C(=O)c1c(C)nn(C)c1O [2-229] | – | – | – | – | – | – | – | – | 60% | 10% | 50% | 100% | 100% | 100% | 90% | 100% | 100% | – |
| Cc1nc(-n2cncn2)ccc1C(=O)c1cnoc1C1CC1 [3-115] | 90% | 100% | 100% | 100% | 100% | 5% | 10% | 20% | – | – | – | – | – | – | – | – | – | – |

Source: US8658798B2, “Herbicide triazolylpyridine ketones” (Bayer Cropscience AG, priority 2007, dated 2014)
